Assay [1] has as its system Plasmodium yoelii yoelii. The assay can be described thus: Antimalarial activity against liver stages of Plasmodium yoelii yoelii in mouse hepatocytes assessed as growth inhibition. The settings on record: Hepatocyte. The format is functional, organism-based.
Assay [2] relates to Plasmodium berghei. The assay is described as follows: Antimalarial activity against liver stages of Plasmodium berghei assessed as human HepG2 cells assessed as inhibition of hepatic parasite growth after invasion of hepatocytes incubated for 48 hrs followed by compound wash out measured after 2 days by RT-PCR analysis. The format is functional, organism-based.
Assay [3] deals with Plasmodium berghei. The assay can be described thus: Antimalarial activity against Plasmodium berghei infected in […] 1-6 cells assessed as inhibition of host cell sporozoite invasion at 10 uM preincubated for 10 mins measured after 1 hr. In kind it is functional. The settings on record: Hepa1-6.
For assay [4], the system named is Plasmodium yoelii. The assay can be described thus: Antimalarial activity against liver stages of Plasmodium yoelii 17XNL expressing GFP infected in human HepG2 cells transfected with CD81 assessed as growth inhibition of hepatic parasite after 40 hrs by flow cytometry. The format is functional, organism-based.
Assay [5] deals with Plasmodium berghei. The assay can be described thus: Antimalarial activity against liver stages of Plasmodium berghei infected in human HepG2 cells assessed as growth inhibition of hepatic parasite before invasion of hepatocytes incubated for 48 hrs followed by compound wash out measured after 3 days by RT-PCR analysis. The format is functional, organism-based.
Assay [6] concerns Plasmodium yoelii. The assay can be described thus: Antimalarial activity against liver stages of Plasmodium yoelii 17XNL infected in Swiss Webster mouse assessed as reduction in liver parasite load at 100 mg/kg, po co-administered with 50 mg/kg ritonavir incubated for 6 hrs prior to sporozoite inoculation measured after 18 hrs. In kind it is functional. Set-up: scale not given: the % may be the effect or the level left.

The subject of assay [7] is Plasmodium yoelii. The assay can be described thus: Antimalarial activity against liver stages of Plasmodium yoelii 17XNL infected in Swiss Webster mouse assessed as reduction in liver parasite load at 25 mg/kg, po co-administered with 12.5 mg/kg ritonavir incubated for 6 hrs prior to sporozoite inoculation measured after 18 hrs. In kind it is functional. Set-up: scale not given: the % may be the effect or the level left.

Assay [8] has as its system Plasmodium berghei. The assay is described as follows: Antimalarial activity against liver stages of Plasmodium berghei […] infected in human Hepa1-6 cells assessed as reduction in liver parasite load at 10 uM/L incubated for 1 hr prior to sporozoite inoculation measured after 46 to 48 hrs by fluorescence microscope. The format is functional. Set-up: scale not given: the % may be the effect or the level left.

For the next assay, the system named is Plasmodium cynomolgi. The assay is described as follows: Antimalarial activity against liver stages of Plasmodium cynomolgi infected in human HepG2 cells assessed as growth inhibition of hepatic parasite after 3 days. The format is functional, organism-based. The settings on record: 72 h.
Assay [9] has as its system Plasmodium yoelii. The assay can be described thus: Antimalarial activity against Plasmodium yoelii infected in mouse assessed as protection against parasitic infection at 5 mg/kg, po. In kind it is functional.
The subject of assay [10] is Plasmodium falciparum. The assay can be described thus: Antimalarial activity against liver stages of Plasmodium falciparum NF54 infected in human hepatocytes assessed as growth inhibition of hepatic parasite after 5 days by fluorescence microscopy. In kind it is functional, organism-based. The conditions noted are these: NF54, Hepatocyte, 120 h.
Assay [11] concerns Plasmodium yoelii. The assay can be described thus: Antimalarial activity against liver stages of Plasmodium yoelii infected in mouse assessed as protection against parasitic infection at 50 mg/kg, po after 7 days. The format is functional.
The subject of assay [12] is Plasmodium yoelii. The assay is described as follows: Antimalarial activity against liver stages of Plasmodium yoelii assessed as inhibition of cytochrome bc1 complex. In kind it is functional, organism-based.
Assay [13] deals with Plasmodium falciparum. The assay is described as follows: Antimalarial activity against liver stages of Plasmodium falciparum NF54 in mouse after 72 to 120 hrs by immunofluorescence assay. In kind it is functional, organism-based.
Assay [14] relates to Plasmodium yoelii yoelii. The assay can be described thus: Antimalarial activity against liver stages of Plasmodium yoelii yoelii 265 BY infected in mouse after 48 hrs by immunofluorescence assay. The format is functional, organism-based.
The subject of assay [15] is Plasmodium yoelii. The assay can be described thus: Antimalarial activity against Plasmodium yoelii infected in CD-1 mouse assessed as efficacy at 40 mg/kg, po after 2 hrs. The format is functional.
Assay [16] deals with Plasmodium yoelii. The assay can be described thus: Antimalarial activity against Plasmodium yoelii infected in CD-1 mouse assessed as efficacy at 160 mg/kg, ip. In kind it is functional. The conditions noted are these: route intraperitoneal.
Assay [17] deals with Plasmodium yoelii. The assay can be described thus: Antimalarial activity against Plasmodium yoelii infected in CD-1 mouse assessed as efficacy at 160 mg/kg, po after 2 hrs. In kind it is functional.
The subject of another assay is Plasmodium vivax. The assay is described as follows: Antimalarial activity against Plasmodium vivax assessed as effect on cure rate after 28 days. The format is functional.
Assay [18] concerns Plasmodium yoelii. The assay can be described thus: Antimalarial activity against Plasmodium yoelii infected in CD-1 mouse assessed as efficacy at 40 mg/kg, ip. The settings on record: route intraperitoneal. The format is functional.
The test system of assay [19] is Plasmodium berghei. The assay can be described thus: Antimalarial activity against liver stages of Plasmodium berghei in human HepG2 cells assessed as inhibition of exoerythrocytic development at 1.85 nM administered 3 hrs after sporozite invasion measured after 48 hrs. The format is functional.
Assay [20] concerns Plasmodium falciparum. The assay is described as follows: Antimalarial activity against liver stages of Plasmodium falciparum NF54 infected in human HepG2-A16 cells expressing CD81 assessed as growth inhibition of hepatic parasite after 5 days by fluorescence microscopy. The settings on record: NF54, HepG2A16, Liver, 120 h. In kind it is functional, organism-based.
For assay [21], the system named is Plasmodium berghei. The assay can be described thus: Antimalarial activity against liver stages of Plasmodium berghei assessed as inhibition of cytochrome bc1 complex. In kind it is functional, organism-based.
Assay [22] concerns Plasmodium yoelii. The assay is described as follows: Antimalarial activity against Plasmodium yoelii infected in po dosed mouse assessed as minimum dose required to protection against 100% parasitic infection. The format is functional. The conditions noted are these: read-out: MED.
In assay [23] the test system is Plasmodium yoelii. The assay is described as follows: Antimalarial activity against Plasmodium yoelii infected in mouse assessed as protection against parasitic infection at 160 mg/kg, po. The format is functional.
For assay [24], the system named is Plasmodium yoelii. The assay can be described thus: Antimalarial activity against liver stages of Plasmodium yoelii after 96 hrs. In kind it is functional, organism-based.
The test system of assay [25] is Plasmodium yoelii. The assay can be described thus: Antimalarial activity against liver stages of Plasmodium yoelii after 96 hrs.
Assay [26] deals with Plasmodium berghei. The assay can be described thus: Antimalarial activity against Plasmodium berghei ANKA expressing GFP infected in C57BL/6 mouse assessed as reduction of liver infection at 200 mg/kg, po incubated for 6 hrs prior to sporozoite inoculation measured after 40 hrs by qRT PCR. Set-up: scale not given: the % may be the effect or the level left.
Assay [27] relates to Plasmodium berghei. The assay is described as follows: Antimalarial activity against liver stages of Plasmodium berghei. In kind it is functional, organism-based.
Assay [28] has as its system Plasmodium berghei. The assay is described as follows: Antimalarial activity against Plasmodium berghei ANKA infected in C57BL/6 mouse assessed as increase in resistance of mouse to cerebral malaria at 10 mg/kg, ip. The format is functional. The settings on record: route intraperitoneal.
In assay [29] the test system is Plasmodium berghei. The assay is described as follows: Antimalarial activity against Plasmodium berghei ANKA infected in human Huh7 cells after 24 hrs by qRT-PCR. In kind it is functional, organism-based. The conditions noted are these: Huh-7, 24 h. (Quantitative PCR measures a nucleic acid by following its amplification.)

What is called IC50 is the concentration at which inhibition is half-maximal. For the compound `NCCCCN(CCCN)C(=O)CCCCCCCCCCCOCc1ccc2c(c1)[C@@H]1C[C@]3(CCCCO3)NC3=N[C@]4(CCCCO4)C[C@H]2N31`, the IC50 in the assay on Plasmodium yoelii yoelii [1] came out at 9.2 µM.
The inhibition is the share of the control response that was lost under treatment. On to `C=CCS[S+]([O-])CC=C` (configuration not stated) [ALLICIN], for which the IC50 with Plasmodium berghei [2] was found to be 39.4 µM; in the assay on Plasmodium yoelii [4], 40 µM; with Plasmodium berghei [5], 6.8 µM. Besides, the inhibition at 10 µM in the assay on Plasmodium berghei [3] stood at 37%.
As for `Cc1cccc(C)c1OCC(=O)N[C@@H](Cc1ccccc1)[C@@H](O)C[C@H](Cc1ccccc1)NC(=O)[C@H](C(C)C)N1CCCNC1=O` [LOPINAVIR], the values for the Activity in the assay on Plasmodium yoelii [6], with Plasmodium yoelii [7] and with Plasmodium berghei [8] were 93%, 45% and 38%, respectively.
For the compound `CCc1nc(N)nc(N)c1-c1ccc(Cl)cc1` [PYRIMETHAMINE], in the assay on Plasmodium cynomolgi, the IC50 stood at 1.03 µM.
Turning to `CC(C)COC(=O)N/C(=N/C(C)C)NC1=NC(=O)C(=O)N1c1ccc(Cl)c(Cl)c1`, the Activity in the assay with Plasmodium yoelii [9] turned out to be 100%.
On to `COC1=C2[C@H]3NCC[C@]2(C[C@H](O)[C@@H]1O)c1c(ccc(OC)c1O)[C@H]3O` [TAZOPSINE], for which, in the assay on Plasmodium falciparum [10], the IC50 came out at 4.2 µM.
Regarding `CCCCCCCCCCOc1cc2c(O)c(C(=O)OCC)cnc2cc1OCC` [DECOQUINATE], the Activity in the assay with Plasmodium yoelii [11] is listed as 80%. For the same compound, the IC50 with Plasmodium yoelii [12] is 0.000177 µM.
For `Cc1c(F)c(N2CCNC(C)C2)cc2c1c(=O)c(C(=O)O)cn2C1CC1` (configuration not stated) [GREPAFLOXACIN], the IC50 in the assay on Plasmodium falciparum [13] and in the assay with Plasmodium yoelii yoelii [14] was 10 µM each time.
`CC[C@H]1OC(=O)[C@H](C)[C@@H](O[C@H]2C[C@@](C)(OC)[C@@H](O)[C@H](C)O2)[C@H](C)[C@@H](O[C@@H]2O[C@H](C)C[C@H](N(C)C)[C@H]2O)[C@](C)(O)C[C@@H](C)CN(C)[C@H](C)[C@@H](O)[C@]1(C)O` [AZITHROMYCIN]: the Efficacy with Plasmodium yoelii [15] worked out at 40%; in the assay with Plasmodium yoelii [16] it was 100%; with Plasmodium yoelii [17], 100%; in the assay with Plasmodium yoelii [18], 80%. Besides, the Activity with Plasmodium vivax came out at 58%.
In general, inhibition in vivo refers to the drop in the measured response relative to a control, in per cent. In the case of `O=C1C(O)=C([C@H]2CC[C@H](c3ccc(Cl)cc3)CC2)C(=O)c2ccccc21` [ATOVAQUONE], the inhibition in vivo at 0.00185 µM with Plasmodium berghei [19] turned out to be 50%. The IC50 in the assay on Plasmodium falciparum [20] was determined as 0.00395 µM; in the assay with Plasmodium berghei [21], 0.0197 µM.
As to `CC(C)COC(=O)/N=C(\NC1=NC(=O)C(=O)N1C(C)C)Nc1ccc(Cl)c(Cl)c1`, in the assay with Plasmodium yoelii [22], the minimal effective dose stood at 40 mg/kg. Besides, in the assay on Plasmodium yoelii [23], the Activity was found to be 100%.
For the compound `CC(C)(C)NC(=O)[C@@H]1C[C@@H]2CCCC[C@@H]2CN1C[C@@H](O)[C@H](Cc1ccccc1)NC(=O)[C@H](CC(N)=O)NC(=O)c1ccc2ccccc2n1`, the Activity in the assay on Plasmodium berghei [8] is reported as 55%.
On to `C[C@@H](CN1CC(=O)NC(=O)C1)N1CC(=O)NC(=O)C1` [DEXRAZOXANE], for which the INH in the assay on Plasmodium yoelii [24] and with Plasmodium yoelii [25] was 50 µM in each case.
Regarding `O=c1c(-c2ccc(O)cc2)coc2cc(O)cc(O)c12` [GENISTEIN], the Activity in the assay on Plasmodium berghei [26] is recorded as 64%. For the same compound, in the assay with Plasmodium berghei [27], the IC50 was determined as 20 µM.
For the compound `C[C@H](NC(=O)[C@@H](O)c1cc(F)cc(F)c1)C(=O)N[C@@H]1C(=O)N(C)c2ccccc2-c2ccccc21`, the Activity in the assay with Plasmodium berghei [28] stood at 55%. The same compound yielded an IC50 in the assay with Plasmodium berghei [29] of 80 µM.

(Values after ChEMBL document CHEMBL2086285, “Targeting the liver stage of malaria parasites: a yet unmet goal” (J Med Chem, 2012).)
